Assay results: ChEMBL document CHEMBL4651402, “Screening of ~5500 FDA-approved drugs and clinical candidates for anti-SARS-CoV-2 activity” (2021)
Where a name gives a salt, the structure may show the parent alone.

Tested on: SARS-CoV-2
Experiment: microbe, parasite or virus in culture
Settings: Severe acute respiratory syndrome coronavirus 2, Vero C1008, 48 h

Structure (SMILES) | IC50 | IC50 (read-out: pIC50 (converted))
COC(=O)C1=C(C)NC(C)=C(C(=O)OCCCN2CCC(c3ccccc3)(c3ccccc3)CC2)C1c1cccc([N+](=O)[O-])c1 (centres undefined) | > 20 µM | > 20 µM
CN1C(=O)C(O)N=C(c2ccccc2Cl)c2cc(Cl)ccc21 (centres undefined) [LORMETAZEPAM] | > 20 µM | > 20 µM
CCOc1nc2cccc(C(=O)O)c2n1Cc1ccc(-c2ccccc2-c2nnn[nH]2)cc1 | > 20 µM | > 20 µM
Nc1nc2c(ncn2COCCO)c(=O)[nH]1 [ACYCLOVIR] | > 20 µM | > 20 µM
CNS(=O)(=O)CCc1ccc2[nH]cc(C3CCN(C)CC3)c2c1 | > 20 µM | > 20 µM
CC1(C)Oc2ccc(OC(F)(F)F)cc2[C@@H](N2Cc3ccccc3C2=O)C1O (some centres undefined) | > 20 µM | > 20 µM
CCC(C)C(CC)C(N)=O (centres undefined) [VALNOCTAMIDE] | > 20 µM | > 20 µM
CC12CCC(O)CC1=CCC1C2CCC2(C)C(O)CCC12 (centres undefined) | > 20 µM | > 20 µM
Cc1cn[nH]c1 [FOMEPIZOLE] | > 20 µM | > 20 µM
CC(=O)OC1CCC2(C)C3CCC4(C)C(CC5OC6(CCC(C)CO6)C(C)C54)C3CC[C@H]2C1 (some centres undefined) | > 20 µM | > 20 µM
OC[C@@H](O)[C@@H](O[C@@H]1O[C@H](CO)[C@H](O)[C@H](O)[C@H]1O)[C@H](O)[C@@H](O)CO [LACTITOL] | > 20 µM | > 20 µM
COc1cc([C@@H]2Oc3cc([C@H]4Oc5cc(O)cc(O)c5C(=O)[C@@H]4O)ccc3O[C@H]2CO)ccc1O [SILYBIN B] | > 20 µM | > 20 µM
CCCCCCCCCCCCCCC[C@@H](O)[C@@H](N)CO [DIHYDROSPINGOSINE] | > 20 µM | > 20 µM
CC(CC(C(N)=O)(c1ccccc1)c1ccccc1)N(C)C (centres undefined) [AMINOPENTAMIDE SULFATE] | > 20 µM | > 20 µM
O=C(O)/C=C/C=C/c1ccc2c(c1)OCO2 [PIPERIC ACID] | > 20 µM | > 20 µM
CCOC(=O)c1ccccc1OC(=O)CCCCCCCC(=O)Oc1ccccc1C(=O)OCC | > 20 µM | > 20 µM
CNCCc1ccccn1 [BETAHISTINE] | > 20 µM | > 20 µM
CCCCCCCCCCCCCC[C@@H](O)[C@@H](O)[C@@H](N)CO [PHYTOSPHINGOSINE] | > 20 µM | > 20 µM
COc1ccccc1N1CCN(CC(O)COc2cc(OC)c(OC)c(OC)c2)CC1 (centres undefined) [ENCIPRAZINE] | > 20 µM | > 20 µM
CCN(CC)C(=O)c1cccc(C)c1 [DIETHYLTOLUAMIDE] | > 20 µM | > 20 µM
CC(C)[N+](C)(CCC(C(N)=O)(c1ccccc1)c1ccccc1)C(C)C [ISOPROPAMIDE] | > 20 µM | > 20 µM

Structure (SMILES) | IC50 | IC50 (read-out: pIC50 (converted))
CCC(C/C=C/c1ccccc1)(c1ccccc1)N(C)CC1CC1 (centres undefined) [IGMESINE] | > 20 µM | > 20 µM
Nc1nccs1 [AMINOTHIAZOLE] | > 20 µM | > 20 µM
COc1c(N2CCNC(C)C2)c(F)cc2c(=O)c(C(=O)O)cn(C3CC3)c12 (centres undefined) [GATIFLOXACIN] | > 20 µM | > 20 µM
Cc1ccnc2c1CCCC2C(N)=S (centres undefined) [ISOTIQUIMIDE] | > 20 µM | > 20 µM
C[C@@](O)(COc1ccc(C#N)cc1)C(=O)Nc1ccc(C#N)c(C(F)(F)F)c1 | > 20 µM | > 20 µM
CC(=O)OC1CCC2(C)C(=CCC3C2CCC2(C)C(C(C)CCCC(C)C)CCC32)C1 (centres undefined) | > 20 µM | > 20 µM
CNC[C@H](O)[C@@H](O)[C@H](O)[C@H](O)CO [MEGLUMINE] | > 20 µM | > 20 µM
O=C(O)C1CCc2cc(C3CCCCC3)c(Cl)cc21 (centres undefined) | > 20 µM | > 20 µM
CNC(=O)c1ccc(-c2cnc3ncc(Cc4ccc5ncccc5c4)n3n2)cc1F [CAPMATINIB] | > 20 µM | > 20 µM
N=C(N)N1CCc2ccccc2C1 [DEBRISOQUIN] | > 20 µM | > 20 µM
COc1ccc2[nH]c([S@@+]([O-])Cc3ncc(C)c(OC)c3C)nc2c1 [ESOMEPRAZOLE] | > 20 µM | > 20 µM
COc1ccccc1CN[C@H]1CCCN[C@H]1c1ccccc1 [CP-99994] | > 20 µM | > 20 µM
OC[C@H]1O[C@H](O[C@H]2[C@H](O)[C@@H](O)[C@H](O)O[C@@H]2CO)[C@H](O)[C@@H](O)[C@@H]1O [MALTOSE] | > 20 µM | > 20 µM
C[C@H]1CC[C@]2(NC1)O[C@H]1C[C@H]3[C@@H]4CC[C@H]5C[C@@H](O)CC[C@]5(C)[C@H]4CC[C@]3(C)[C@H]1[C@@H]2C [TOMATIDINE] | > 20 µM | > 20 µM
N=C(N)NCCNS(=O)(=O)c1cccc2cnccc12 | > 20 µM | > 20 µM
O=c1ccn([C@@H]2O[C@H](CO)[C@@H](O)[C@@H]2O)c(=O)[nH]1 [ARAURIDINE] | > 20 µM | > 20 µM
CCOC(=O)NC1=C(N2CC2)C(=O)C(NC(=O)OCC)=C(N2CC2)C1=O [DIAZIQUONE] | > 20 µM | > 20 µM
C=C(C)C1Cc2c(ccc3c2OC2COc4cc(OC)c(OC)cc4C2C3=O)O1 (centres undefined) | > 20 µM | > 20 µM
CC(C)=CCc1c2c(c3occ(-c4ccc(O)cc4)c(=O)c3c1O)C=CC(C)(C)O2 [OSAJIN] | > 20 µM | > 20 µM
C[C@H]1C[C@H]2[C@@H]3CCC4=CC(=O)C=C[C@]4(C)[C@@]3(F)[C@@H](O)C[C@]2(C)[C@@]1(O)C(=O)CCl [CLOBETASOL] | > 20 µM | > 20 µM
NS(=O)(=O)NCCNc1nonc1/C(=N/O)Nc1ccc(F)c(Br)c1 [EPACADOSTAT] | > 20 µM | > 20 µM

Structure (SMILES) | IC50 | IC50 (read-out: pIC50 (converted))
C[C@]12CC[C@H](O)C[C@@H]1CC[C@@H]1C2CC[C@]2(C)[C@@H](C3=CC(=O)OC3)CC[C@]12O (some centres undefined) | > 20 µM | > 20 µM
O=C1Nc2ccc(Cl)cc2[C@](C#CC2CC2)(C(F)(F)F)O1 | > 20 µM | > 20 µM
c1ccc2c3c([nH]c2c1)[C@H]1[C@H]2CC[C@H]([C@@H]4CCCN[C@@H]42)N1CC3 | > 20 µM | > 20 µM
Nc1cc(C(F)(F)F)c(-c2cc(N3CCOCC3)nc(N3CCOCC3)n2)cn1 [BUPARLISIB] | > 20 µM | > 20 µM
CC(=O)OC(Cc1ccccc1)(c1ccccc1)C(C)CN1CCCC1 (centres undefined) [PYRROLIPHENE] | > 20 µM | > 20 µM
O=C(O)Cc1nn(Cc2ccc(Br)cc2F)c(=O)c2ccccc12 [PONALRESTAT] | > 20 µM | > 20 µM
CNCCOC(c1ccccc1)c1ccccc1C (centres undefined) [TOFENACIN] | > 20 µM | > 20 µM
CCCc1c(OCC(O)COc2ccc3c(=O)cc(C(=O)O)oc3c2CCC)ccc(C(C)=O)c1O (centres undefined) [FPL-55712] | > 20 µM | > 20 µM
CC1(C)OC2CC3C4CCC5=CC(=O)C=CC5(C)C4C(O)CC3(C)[C@]2(C(=O)CO)O1 (some centres undefined) | > 20 µM | > 20 µM
CN1CCC(=C2c3ccccc3CCc3sccc32)CC1 [PIZOTYLINE] | > 20 µM | > 20 µM
COc1ccc2c(c1)c(CC(=O)NC(CO)C(=O)O)c(C)n2C(=O)c1ccc(Cl)cc1 (centres undefined) | > 20 µM | > 20 µM
NCCc1ccc(O)cc1 [TYRAMINE] | > 20 µM | > 20 µM
Cc1ccc(/C(=C\CN2CCCC2)c2ccccn2)cc1 [TRIPROLIDINE] | > 20 µM | > 20 µM
[2H]C([2H])(OC(=O)C(C)C)[C@@]1(CCl)O[C@@H](n2ccc(N)nc2=O)[C@H](F)[C@@H]1OC(=O)C(C)C | > 20 µM | > 20 µM
CC(=O)Oc1ccc2c(c1)CCC1C2CCC2(C)C(O)CCC12 (centres undefined) | > 20 µM | > 20 µM
CN1CC(CN(CCN=[N+]=[N-])S(C)(=O)=O)=CC2c3cccc4[nH]cc(c34)CC21 (centres undefined) | > 20 µM | > 20 µM
c1cnc2c(c1)CNC2 [6,7-DIHYDRO-5H-PYRROLO[3,4-B]PYRIDINE] | > 20 µM | > 20 µM
CN(C)C(=O)CCSC(SCCC(=O)O)c1cccc(/C=C/c2ccc3ccc(Cl)cc3n2)c1 (centres undefined) [MK-571] | > 20 µM | > 20 µM
CC(C)(C)[C@@H](CO)NC(=O)c1nn(-c2c[n+]([O-])ccn2)c2c1C[C@@H]1C[C@H]21 [OLORINAB] | > 20 µM | > 20 µM
C#C[C@]1(O)C=C[C@H]2[C@@H]3CCC4=CC(=O)CC[C@@H]4[C@H]3CC[C@@]21CC [GESTODENE] | > 20 µM | > 20 µM
